System: Monocotyledonous and dicotyledonous test plants
Assay: Herbicidal action, application pre-emergence
Assay type: in vivo
Parameters: key: 10=total damage to plant; 0=no damage to plant
Conditions: spray solution 1000 mg/l, scale 0-10; for Herbicidal action (damage score) AGSTE: Agrostis tenius; for Herbicidal action (damage score) AMARE: Amaranthus retroflexus; for Herbicidal action (damage score) DIGSA: Digitaria sanguinalis; for Herbicidal action (damage score) POATR: Poa trivialis; for Herbicidal action (damage score) SETFA: Setaria faberi; for Herbicidal action (damage score) SETIT: Setaria italica
Protocol: Monocotyledonous and dicotyledonous test plants were sown in sterilised standard soil in seed trays each having 96 cells. After one day (pre-emergence) or after 8 to 9 days cultivation (post-emergence) under controlled conditions in a climatic chamber (cultivation at 23/17° C., day/night; 13 hours light; 50-60% humidity; after application at 24/19° C., day/night), the plants were treated with an aqueous spray solution of 1000 mg/l of the active ingredient used (incl. 10% DMSO as solvent). The plants were grown on in the climatic chamber until the test was evaluated (10=total damage to plant, 0=no damage to plant) after 9 or 13 days.

| SMILES | Herbicidal action (damage score) AGSTE | Herbicidal action (damage score) AMARE | Herbicidal action (damage score) DIGSA | Herbicidal action (damage score) POATR | Herbicidal action (damage score) SETFA | Herbicidal action (damage score) SETIT |
| --- | --- | --- | --- | --- | --- | --- |
| COCCn1nc(C(F)[S+]([O-])C2=NOC(C)(C)C2)c(C(F)(F)F)n1 (mixture of isomers) [1.24] | 10 | 10 | 10 | 10 | 9 |  |
| CC1(C)CC([S+]([O-])C(F)c2nn(C3CCCC3)nc2C(F)(F)F)=NO1 (mixture of isomers) [1.30] | 10 | 10 | 9 | 10 | 8 |  |
| C=CCn1nc(C(F)[S+]([O-])C2=NOC(C)(C)C2)c(C(F)(F)F)n1 (mixture of isomers) [1.33] | 10 | 4 | 10 | 10 | 6 |  |
| CCn1ncc(C(F)[S+]([O-])C2=NOC(C)(C)C2)n1 (mixture of isomers) [1.39] | 10 | 9 | 9 | 10 | 9 |  |
| CC1(C)CC([S+]([O-])C(F)c2cn(C(C)(C)C)nn2)=NO1 (mixture of isomers) [Compound No. 2.03] | 8 | 2 | 9 | 4 | 5 |  |
| Cn1nnc(Br)c1C(F)[S+]([O-])C1=NOC(C)(C)C1 (mixture of isomers) [Compound No. 3.05] | 10 | 8 | 10 | 10 | 9 |  |
| Cn1nc(C(F)(F)F)c(C(F)(Cl)S(=O)(=O)C2=NOC(C)(C)C2)n1 (racemic) [1.10] | 10 | 10 | 10 | 10 |  | 10 |
| CCc1nn(CC)nc1C(F)S(=O)(=O)C1=NOC(C)(C)C1 (racemic) [1.12] | 10 | 10 | 9 | 10 | 9 |  |
| CC(C)n1nc(C(F)(F)F)c(C(F)(F)[S+]([O-])C2=NOC(C)(C)C2)n1 (racemic) [1.18] | 10 | 10 | 10 | 10 | 9 |  |
| Cc1nn(C(F)F)nc1C(F)(F)[S+]([O-])C1=NOC(C)(C)C1 (racemic) [1.22] | 10 | 10 | 10 | 10 | 9 |  |
| COCCn1nc(C(F)(F)F)c(C(F)(F)[S+]([O-])C2=NOC(C)(C)C2)n1 (racemic) [1.25] | 10 | 10 | 10 | 10 | 9 |  |
| CCc1nn(C)nc1C(F)(F)[S+]([O-])C1=NOC(C)(C)C1 (racemic) [1.27] | 10 | 10 | 10 | 10 | 9 |  |
| CC1(C)CC(S(=O)(=O)C(F)c2nn(C3CCCC3)nc2C(F)(F)F)=NO1 (racemic) [1.28] | 10 | 9 | 9 | 10 | 8 |  |
| CC1(C)CC([S+]([O-])C(F)(F)c2nn(C3CCCC3)nc2C(F)(F)F)=NO1 (racemic) [1.31] | 10 | 0 | 9 | 7 | 9 |  |
| C=CCn1nc(C(F)(F)F)c(C(F)(F)[S+]([O-])C2=NOC(C)(C)C2)n1 (racemic) [1.34] | 10 | 9 | 10 | 10 | 10 |  |
| Cc1nn(C)nc1C(F)(Cl)S(=O)(=O)C1=NOC(C)(C)C1 (racemic) [Compound No. 1.07] | 10 | 9 | 10 | 10 |  | 9 |
| Cn1nc(C(F)S(=O)(=O)C2=NOC(C)(C)C2)c(C(F)(F)F)n1 (racemic) [Compound No. 1.11] | 10 | 10 | 10 | 10 |  | 10 |
| CCn1nc(C(F)(F)F)c(C(F)(F)[S+]([O-])C2=NOC(C)(C)C2)n1 (racemic) [Compound No. 1.16] | 10 | 10 | 10 | 10 | 9 |  |
| Cc1nn(C(F)F)nc1C(F)S(=O)(=O)C1=NOC(C)(C)C1 (racemic) [Compound No. 1.19] | 10 | 10 | 10 | 10 | 10 |  |

— patent publication US20100004128A1, “HERBICIDAL ISOXAZOLINE COMPOUNDS” (SYNGENTA CROP PROTECTION, INC., priority 2006, published 2010)
